Test results published in patent publication US12584896B2, “Process for quantification of metal amino acid chelates in solutions and solids” (Premex, Inc., priority 2018, dated 2026).

Assay: pKa's of phytic acid (ionization of phosphate groups)
Format: physicochemical
Description: A liquid sample was reacted with phytic acid. The reaction between the compounds and the phytic acid was at a pH of 3.0. Phytic acid ionization began via phosphates group in the following order: (a) P1, and P3 at a pH of from about 1.5 to about 2.0; (b) P4 and P6 at a pH of from about 2.0 to about 2.5; (c) P2 and at a pH of about 2 .5; and (d) P5 at a pH of from about 3.0 to about 5.0 (see FIGS. 1 and 2).

pKa: 9.3
Structure (SMILES): O=P(O)(O)O[C@H]1[C@H](OP(=O)(O)O)[C@@H](OP(=O)(O)O)[C@H](OP(=O)(O)O)[C@@H](OP(=O)(O)O)[C@H]1OP(=O)(O)O [phytic acid]
